From patent publication US6943025B2, “Method for identifying genes involved in cell proliferation” (Children's Medical Center Corporation, priority 2001, dated 2005)

What was measured:
Wild-type fish = conditions: zebrafish, in vivo
[1] = test system: zebrafish mutant strains and wild-type; experiment: Carcinogenesis assay in mutant strains (carcinogen induced tumorigenesis, Table II); conditions: 21 day-old fry
zebrafish embryos = conditions: literature reports; cited from earlier work
[2] = SQW 61, 5.0 ppm DMBA 24 hours, three months post-treatment
[3] = SQW 213, 5.0 ppm DMBA 24 hours, three months post-treatment
[4] = SQW 226, 5.0 ppm DMBA 24 hours, three months post-treatment
[5] = SQW 280, 5.0 ppm DMBA 24 hours, three months post-treatment
[6] = WT, 5.0 ppm DMBA 24 hours, 6 months post-treatment

SMILES: Cc1c2ccccc2c(C)c2c1ccc1ccccc12 [DMBA, 7,12 dimethylbenzanthracene]
- fish that developed tumors (Wild-type fish; wild-type): 10.4%
- fish that developed tumors / fish treated (Wild-type fish; wild-type): 9/86
- tumor seen in tissue sections (histology) (Wild-type fish): medulloblastoma
- tumor types produced (Wild-type fish): more brain and liver tumors
- # tumors [1, 2]: 24
- % tumors [1, 2]: 18%
- # tumors [1, 3]: 2
- % tumors [1, 3]: 7%
- # tumors [1, 4]: 4
- % tumors [1, 4]: 20%
- # tumors [1, 5]: 6
- % tumors [1, 5]: 12%
- # tumors [1, 6]: 2
- % tumors [1, 6]: 5%

SMILES: C[C@@]1(CO)[C@H](O)CC[C@@]2(C)[C@H]1CC[C@H]1C[C@@H]3C[C@@]12CC[C@]3(O)CO [aphidicolin]
- effect on zebrafish embryos (checkpoint, apoptosis) (zebrafish embryos): cause apoptosis

SMILES: COC(=O)Nc1nc2cc(C(=O)c3cccs3)ccc2[nH]1 [nocodozolc]
- effect on zebrafish embryos (checkpoint, apoptosis) (zebrafish embryos): destabilized microtubules and the activation of a mitotic checkpoint

SMILES: NC(=O)NO [hydoxyurea]
- effect on zebrafish embryos (checkpoint, apoptosis) (zebrafish embryos): cause apoptosis

SMILES: CC[C@@]1(O)C(=O)OCc2c1cc1n(c2=O)Cc2cc3ccccc3nc2-1 [Camptothecin]
- effect on zebrafish embryos (checkpoint, apoptosis) (zebrafish embryos): produces DNA strand breaks, resulting in subsequent apoptosis
